{
  "source": "ChEMBL document CHEMBL3132769",
  "about": "“Fragment growing to retain or alter the selectivity of anchored kinase hinge-binding fragments” (Medchemcomm, 2014)",
  "key": {"[1]": {"target": "Ribosomal protein S6 kinase alpha-3 (Homo sapiens) (UniProt P51812)", "experiment": "Inhibition of human full length RSK2 expressed in baculovirus assessed as substrate phosphorylation using fluorescence-labelled peptides as substrate at 0.06 uM after 90 mins by microfluidic peptide phosphorylation assay"}, "[2]": {"target": "T1, Serine/threonine-protein kinase Sgk3 (Homo sapiens) (UniProt Q96BR1)", "T1 sequence (whole entry)": "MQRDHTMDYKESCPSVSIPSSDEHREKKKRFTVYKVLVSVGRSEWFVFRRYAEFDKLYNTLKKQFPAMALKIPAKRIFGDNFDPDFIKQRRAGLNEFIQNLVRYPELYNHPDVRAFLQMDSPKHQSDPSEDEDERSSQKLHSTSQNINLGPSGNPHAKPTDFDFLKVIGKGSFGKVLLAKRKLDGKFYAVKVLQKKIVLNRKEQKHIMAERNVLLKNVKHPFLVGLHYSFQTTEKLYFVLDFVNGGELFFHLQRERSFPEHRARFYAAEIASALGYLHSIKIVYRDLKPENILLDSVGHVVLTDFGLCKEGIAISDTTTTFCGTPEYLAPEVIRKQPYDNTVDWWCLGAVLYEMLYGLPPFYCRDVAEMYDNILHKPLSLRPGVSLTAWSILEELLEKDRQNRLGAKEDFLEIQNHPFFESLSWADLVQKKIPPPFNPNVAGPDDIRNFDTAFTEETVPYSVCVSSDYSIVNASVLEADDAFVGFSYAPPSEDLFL", "experiment": "Inhibition of human full length SGK3 expressed in baculovirus assessed as substrate phosphorylation using fluorescence-labelled peptides as substrate at 0.2 uM after 90 mins by microfluidic peptide phosphorylation assay"}, "[3]": {"target": "Vascular endothelial growth factor receptor 2 (Homo sapiens) (UniProt P35968)", "sequence (P35968 whole entry, the tested form may be a part)": "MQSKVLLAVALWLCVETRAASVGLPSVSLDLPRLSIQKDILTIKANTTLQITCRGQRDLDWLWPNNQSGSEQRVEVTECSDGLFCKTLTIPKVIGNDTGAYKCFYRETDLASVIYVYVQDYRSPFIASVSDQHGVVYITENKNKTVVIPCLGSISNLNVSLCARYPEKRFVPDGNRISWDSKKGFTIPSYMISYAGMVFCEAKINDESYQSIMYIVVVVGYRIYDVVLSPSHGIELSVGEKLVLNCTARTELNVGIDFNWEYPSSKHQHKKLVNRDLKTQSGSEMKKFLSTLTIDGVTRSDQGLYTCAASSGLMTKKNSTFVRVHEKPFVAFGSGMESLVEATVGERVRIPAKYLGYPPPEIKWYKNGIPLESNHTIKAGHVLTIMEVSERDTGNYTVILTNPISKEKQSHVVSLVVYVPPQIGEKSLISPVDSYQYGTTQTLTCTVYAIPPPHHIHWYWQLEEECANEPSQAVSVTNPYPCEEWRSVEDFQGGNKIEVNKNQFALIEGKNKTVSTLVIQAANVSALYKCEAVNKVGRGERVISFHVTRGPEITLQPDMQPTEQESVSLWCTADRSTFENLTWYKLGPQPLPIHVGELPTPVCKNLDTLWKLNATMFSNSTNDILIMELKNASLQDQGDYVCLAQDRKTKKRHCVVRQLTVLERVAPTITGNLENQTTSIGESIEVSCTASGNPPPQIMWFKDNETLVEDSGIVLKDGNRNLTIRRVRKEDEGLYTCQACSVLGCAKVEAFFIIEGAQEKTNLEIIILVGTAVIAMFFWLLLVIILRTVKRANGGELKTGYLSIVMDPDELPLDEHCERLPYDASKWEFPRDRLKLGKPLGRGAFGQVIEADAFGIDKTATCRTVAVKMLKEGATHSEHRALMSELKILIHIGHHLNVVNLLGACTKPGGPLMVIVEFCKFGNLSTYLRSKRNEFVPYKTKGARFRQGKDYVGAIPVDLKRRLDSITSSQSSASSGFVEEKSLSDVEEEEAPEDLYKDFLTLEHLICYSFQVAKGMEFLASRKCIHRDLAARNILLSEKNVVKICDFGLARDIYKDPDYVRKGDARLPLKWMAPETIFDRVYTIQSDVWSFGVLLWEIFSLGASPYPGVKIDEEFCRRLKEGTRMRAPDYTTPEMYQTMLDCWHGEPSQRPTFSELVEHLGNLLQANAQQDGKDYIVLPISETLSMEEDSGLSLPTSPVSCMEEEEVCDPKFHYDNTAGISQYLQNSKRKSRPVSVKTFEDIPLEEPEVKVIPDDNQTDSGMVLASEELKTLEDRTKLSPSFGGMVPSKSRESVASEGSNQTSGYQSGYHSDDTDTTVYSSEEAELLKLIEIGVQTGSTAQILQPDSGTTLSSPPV", "experiment": "Inhibition of human KDR cytoplasmic domain expressed in baculovirus assessed as substrate phosphorylation using fluorescence-labelled peptides as substrate at 2 uM after 90 mins by microfluidic peptide phosphorylation assay"}, "[4]": {"target": "Aurora kinase B (Homo sapiens) (UniProt Q96GD4)", "sequence (Q96GD4 whole entry)": "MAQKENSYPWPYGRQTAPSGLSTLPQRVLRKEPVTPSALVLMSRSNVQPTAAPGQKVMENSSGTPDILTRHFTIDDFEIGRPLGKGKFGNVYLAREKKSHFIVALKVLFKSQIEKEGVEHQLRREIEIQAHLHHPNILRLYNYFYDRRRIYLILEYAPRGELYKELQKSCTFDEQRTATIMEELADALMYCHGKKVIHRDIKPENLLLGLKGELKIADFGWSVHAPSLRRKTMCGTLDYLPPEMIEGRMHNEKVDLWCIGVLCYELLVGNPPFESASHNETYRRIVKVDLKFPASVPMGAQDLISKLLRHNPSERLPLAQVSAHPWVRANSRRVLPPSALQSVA", "experiment": "Inhibition of human full length AurB expressed in baculovirus assessed as substrate phosphorylation using fluorescence-labelled peptides as substrate at 2 uM after 90 mins by microfluidic peptide phosphorylation assay"}, "[5]": {"target": "Ribosomal protein S6 kinase alpha-1 (Homo sapiens) (UniProt Q15418)", "experiment": "Inhibition of human full length RSK1 expressed in baculovirus assessed as substrate phosphorylation using fluorescence-labelled peptides as substrate at […] after 90 mins by microfluidic peptide phosphorylation assay"}, "[6]": {"target": "Tyrosine-protein kinase Fyn (Homo sapiens) (UniProt P06241)", "sequence (P06241 2-537 limits assumed)": "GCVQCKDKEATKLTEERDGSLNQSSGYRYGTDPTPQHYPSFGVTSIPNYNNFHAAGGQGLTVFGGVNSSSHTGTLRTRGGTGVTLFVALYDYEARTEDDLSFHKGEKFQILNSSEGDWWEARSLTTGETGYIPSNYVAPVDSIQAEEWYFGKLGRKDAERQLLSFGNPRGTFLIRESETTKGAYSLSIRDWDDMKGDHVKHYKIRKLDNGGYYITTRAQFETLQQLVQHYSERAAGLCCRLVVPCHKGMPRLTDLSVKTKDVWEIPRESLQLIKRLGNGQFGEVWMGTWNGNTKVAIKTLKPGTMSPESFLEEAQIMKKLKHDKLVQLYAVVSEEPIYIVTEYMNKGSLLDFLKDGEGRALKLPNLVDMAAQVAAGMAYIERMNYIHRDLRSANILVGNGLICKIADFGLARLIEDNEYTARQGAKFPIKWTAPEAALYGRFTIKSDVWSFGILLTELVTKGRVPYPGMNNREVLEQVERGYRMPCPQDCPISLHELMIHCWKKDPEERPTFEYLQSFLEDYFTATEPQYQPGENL", "experiment": "Inhibition of human full length FYN expressed in baculovirus assessed as substrate phosphorylation using fluorescence-labelled peptides as substrate at […] after 90 mins by microfluidic peptide phosphorylation assay"}, "[7]": {"target": "Protein kinase C delta type (Homo sapiens) (UniProt Q05655)", "sequence (Q05655 whole entry, looked up, the tested form may be a part)": "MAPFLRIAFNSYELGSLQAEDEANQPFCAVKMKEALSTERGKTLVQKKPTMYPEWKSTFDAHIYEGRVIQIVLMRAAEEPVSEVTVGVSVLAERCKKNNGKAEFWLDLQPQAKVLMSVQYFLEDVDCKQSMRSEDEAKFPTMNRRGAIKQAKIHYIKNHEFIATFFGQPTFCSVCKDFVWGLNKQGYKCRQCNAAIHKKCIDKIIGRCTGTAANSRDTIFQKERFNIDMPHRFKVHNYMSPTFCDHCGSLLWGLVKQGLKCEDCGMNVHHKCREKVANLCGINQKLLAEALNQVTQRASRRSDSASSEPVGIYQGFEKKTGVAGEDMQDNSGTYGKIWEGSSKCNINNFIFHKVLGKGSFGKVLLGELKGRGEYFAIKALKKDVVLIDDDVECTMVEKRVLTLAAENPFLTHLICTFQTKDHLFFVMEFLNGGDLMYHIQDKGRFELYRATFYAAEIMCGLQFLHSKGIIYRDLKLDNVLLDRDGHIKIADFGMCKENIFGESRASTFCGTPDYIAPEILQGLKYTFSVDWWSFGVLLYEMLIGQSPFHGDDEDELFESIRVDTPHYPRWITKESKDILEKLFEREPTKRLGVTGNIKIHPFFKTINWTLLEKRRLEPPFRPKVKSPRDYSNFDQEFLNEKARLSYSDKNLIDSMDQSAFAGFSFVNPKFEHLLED", "experiment": "Inhibition of human truncated PKC delta expressed in baculovirus assessed as substrate phosphorylation using fluorescence-labelled peptides as substrate at 9 uM after 90 mins by microfluidic peptide phosphorylation assay"}, "[8]": {"target": "T2, cGMP-dependent protein kinase 1 (Homo sapiens) (UniProt Q13976)", "T2 sequence (whole entry)": "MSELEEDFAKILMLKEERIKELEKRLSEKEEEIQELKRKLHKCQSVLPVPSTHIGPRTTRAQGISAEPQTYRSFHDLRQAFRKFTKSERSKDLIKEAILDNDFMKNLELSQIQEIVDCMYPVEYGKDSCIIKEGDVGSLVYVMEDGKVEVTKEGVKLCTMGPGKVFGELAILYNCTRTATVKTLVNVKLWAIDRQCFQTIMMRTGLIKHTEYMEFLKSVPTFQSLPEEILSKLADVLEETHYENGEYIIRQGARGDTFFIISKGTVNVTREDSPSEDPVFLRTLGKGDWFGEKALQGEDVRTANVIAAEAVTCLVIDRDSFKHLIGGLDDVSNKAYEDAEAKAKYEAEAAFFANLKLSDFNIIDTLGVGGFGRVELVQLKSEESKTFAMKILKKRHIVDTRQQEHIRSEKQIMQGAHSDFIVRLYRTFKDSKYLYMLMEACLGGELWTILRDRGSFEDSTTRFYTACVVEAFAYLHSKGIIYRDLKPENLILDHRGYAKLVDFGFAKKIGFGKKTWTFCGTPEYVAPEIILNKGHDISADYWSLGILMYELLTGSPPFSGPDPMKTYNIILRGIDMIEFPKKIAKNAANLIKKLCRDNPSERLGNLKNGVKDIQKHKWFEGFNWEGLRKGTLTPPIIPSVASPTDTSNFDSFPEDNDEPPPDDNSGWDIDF", "details": "0.1 uM", "description": "Inhibition of human full length PKG-1a expressed in baculovirus assessed as substrate phosphorylation using fluorescence-labelled peptides as substrate at 0.1 uM after 90 mins by microfluidic peptide phosphorylation assay"}, "[9]": {"tested_on": "Fibroblast growth factor receptor 2 (Homo sapiens), P21802 [N549H]", "sequence (P21802 whole entry N549H, the tested form may be a part)": "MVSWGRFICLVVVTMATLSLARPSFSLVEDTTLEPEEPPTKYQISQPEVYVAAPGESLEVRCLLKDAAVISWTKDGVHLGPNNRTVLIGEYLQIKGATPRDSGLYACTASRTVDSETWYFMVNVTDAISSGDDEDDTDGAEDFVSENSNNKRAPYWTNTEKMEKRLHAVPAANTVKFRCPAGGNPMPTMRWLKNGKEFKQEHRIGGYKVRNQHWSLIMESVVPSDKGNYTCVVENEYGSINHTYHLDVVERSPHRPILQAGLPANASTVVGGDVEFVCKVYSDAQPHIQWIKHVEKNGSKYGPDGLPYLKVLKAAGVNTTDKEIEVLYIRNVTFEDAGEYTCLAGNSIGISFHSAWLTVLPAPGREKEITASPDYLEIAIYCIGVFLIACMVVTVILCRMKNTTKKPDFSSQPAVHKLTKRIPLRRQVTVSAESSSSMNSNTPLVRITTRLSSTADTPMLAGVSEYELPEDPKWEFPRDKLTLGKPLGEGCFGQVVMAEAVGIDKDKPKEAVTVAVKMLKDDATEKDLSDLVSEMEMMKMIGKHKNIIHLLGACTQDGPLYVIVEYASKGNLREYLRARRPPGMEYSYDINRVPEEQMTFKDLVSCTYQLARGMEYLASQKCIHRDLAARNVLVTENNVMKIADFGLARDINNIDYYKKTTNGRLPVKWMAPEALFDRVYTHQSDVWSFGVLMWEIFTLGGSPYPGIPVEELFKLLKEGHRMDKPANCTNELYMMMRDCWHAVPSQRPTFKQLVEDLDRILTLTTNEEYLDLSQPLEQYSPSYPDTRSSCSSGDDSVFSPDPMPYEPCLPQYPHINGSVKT", "experiment": "Inhibition of human FGFR2 N549H mutant catalytic domain expressed in baculovirus assessed as substrate phosphorylation using fluorescence-labelled peptides as substrate at 0.1 uM after 90 mins by microfluidic peptide phosphorylation assay"}, "[10]": {"target": "Tyrosine-protein kinase BTK (Homo sapiens) (UniProt Q06187)", "sequence (Q06187 whole entry)": "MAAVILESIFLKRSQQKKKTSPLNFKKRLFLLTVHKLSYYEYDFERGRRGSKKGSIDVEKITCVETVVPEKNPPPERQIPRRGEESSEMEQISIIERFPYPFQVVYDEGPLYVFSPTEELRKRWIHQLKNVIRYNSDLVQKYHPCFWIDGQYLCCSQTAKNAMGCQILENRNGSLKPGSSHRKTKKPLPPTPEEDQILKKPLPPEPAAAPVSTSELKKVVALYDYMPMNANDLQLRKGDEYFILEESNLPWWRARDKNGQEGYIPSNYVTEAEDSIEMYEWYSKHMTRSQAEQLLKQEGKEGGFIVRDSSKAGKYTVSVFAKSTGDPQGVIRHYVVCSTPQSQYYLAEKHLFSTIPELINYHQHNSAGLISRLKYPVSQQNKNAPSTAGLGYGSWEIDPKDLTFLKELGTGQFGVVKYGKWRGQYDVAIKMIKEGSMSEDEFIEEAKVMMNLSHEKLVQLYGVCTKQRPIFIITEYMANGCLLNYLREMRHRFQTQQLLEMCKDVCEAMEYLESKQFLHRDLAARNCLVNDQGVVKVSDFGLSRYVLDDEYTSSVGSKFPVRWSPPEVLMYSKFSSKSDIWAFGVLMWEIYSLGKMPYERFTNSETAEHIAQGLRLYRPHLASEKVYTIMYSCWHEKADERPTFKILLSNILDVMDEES", "details": "0.1 uM", "description": "Inhibition of human full length BTK expressed in baculovirus assessed as substrate phosphorylation using fluorescence-labelled peptides as substrate at 0.1 uM after 90 mins by microfluidic peptide phosphorylation assay"}, "[11]": {"target": "Protein kinase C alpha type (Homo sapiens) (UniProt P17252)", "experiment": "Inhibition of human truncated PKC alpha expressed in baculovirus assessed as substrate phosphorylation using fluorescence-labelled peptides as substrate at 95 uM after 90 mins by microfluidic peptide phosphorylation assay"}, "[12]": {"target": "MAP kinase p38 (Homo sapiens) (UniProt O15264+Q15759+Q16539+P53778)", "experiment": "Inhibition of human full length p38 beta2 expressed in Escherichia coli cell assessed as substrate phosphorylation using fluorescence-labelled peptides as substrate at 70 uM after 90 mins by microfluidic peptide phosphorylation assay"}},
  "data": [
    {"smiles": "NC1(Cc2ccc(Cl)cc2)CCN(c2ncnc3[nH]ccc23)CC1", "values": [
      {"measurement": "inhibition", "setting": "[1]", "result": 0.5, "unit": "%"}
    ]},
    {"smiles": "Clc1ccc(C2(c3ccc(-c4ncnc5[nH]cnc45)cc3)CCNCC2)cc1", "values": [
      {"measurement": "inhibition", "setting": "[2]", "result": 41, "unit": "%"}
    ]},
    {"smiles": "NC1CCN(c2ncnc3[nH]ccc23)CC1", "values": [
      {"measurement": "inhibition", "setting": "[3]", "result": 0, "unit": "%"},
      {"measurement": "inhibition", "setting": "[4]", "result": 34, "unit": "%"}
    ]},
    {"smiles": "COC(=O)c1cnc(Nc2cnc(C#N)cn2)cc1NCC1CCNCC1", "values": [
      {"measurement": "inhibition", "setting": "[5]", "result": 37, "unit": "%"},
      {"measurement": "inhibition", "setting": "[6]", "result": 2, "unit": "%"}
    ]},
    {"smiles": "NCC1CN(c2ncnc3[nH]c4cnccc4c23)CCO1", "note": "(configuration not stated)", "values": [
      {"measurement": "inhibition", "setting": "[7]", "result": 37.5, "unit": "%"}
    ]},
    {"smiles": "C[C@H](CN(C)C)Oc1nc(Nc2cc3cccc(Cl)c3cn2)cnc1C#N", "values": [
      {"measurement": "inhibition", "setting": "[8]", "result": 0, "unit": "%"},
      {"measurement": "inhibition", "setting": "[9]", "result": 7.5, "unit": "%"},
      {"measurement": "inhibition", "setting": "[10]", "result": 0, "unit": "%"}
    ]},
    {"smiles": "NCCc1ccc(-c2ncnc3[nH]cnc23)cc1", "values": [
      {"measurement": "inhibition", "setting": "[11]", "result": 69.5, "unit": "%"}
    ]},
    {"smiles": "CNCc1ccc(-c2ncnc3[nH]cnc23)cc1", "values": [
      {"measurement": "inhibition", "setting": "[12]", "result": 1.5, "unit": "%"}
    ]}
  ]
}
